Format in all cases: biochemical
For test [1], the target named is T1, human liver cathepsin B (Homo sapiens, UniProt P07858).
T1 construct: purchased Sigma or EMDbiosciences; host or cells: human liver
Nature of the test: Specificity assay, cathepsin B. Conditions: read-out: Cathepsin B activity in the specificity assays (IC50). The protocol: (§1) The specificities of compounds of the present disclosure were determined against a variety of serine proteases: human neutrophil elastase (HNE), porcine pancreatic elastase (PPE) and human pancreatic chymotrypsin and one cysteine protease: human liver cathepsin B. In all cases, a 96-well plate format protocol using colorimetric p-nitroaniline (pNA) substrate or fluorometric Amino-Methyl-Coumarin (AMC) substrate, specific for each enzyme was used as described previously (PCT Patent Application No. WO 00/09543) with some modifications. All enzymes were purchased from Sigma or EMDbiosciences while the substrates were from Bachem.
(§2) Each pNA assay included a 2 hours enzyme-inhibitor pre-incubation at room temperature followed by addition of substrate and hydrolysis to ˜15% conversion as measured on a Spectramax Pro microplate reader. The cathepsin B assay was initiated by adding substrate to a 10 min enzyme-inhibitor pre-incubation at room temperature, and the assay plate measured immediately using the Cytofluor Series 4000. Compound concentrations varied from 100 to 0.4 μM depending on their potency. […]
(§3) The percentage of inhibition was calculated using the formula: [1−((UVinh−UVblank)/(UVctl−UVblank))]×100 […]

Test [2] addresses T2, human pancreatic chymotrypsin (Homo sapiens, UniProt P17538).
T2 construct: purchased Sigma or EMDbiosciences
As to the kind of experiment: Specificity assay, chymotrypsin. Conditions: read-out: Chymotrypsin activity in the specificity assays (IC50). The protocol:
as §1, §2, §3

The target of test [3] is T3, HCV NS3/4A protease complex (J4L6S strain) (Hepatitis C virus genotype 1b, UniProt O92972, C1454S/C1711G).
T3 construct: DNA encoding the recombinant HCV NS3/4A protease complex (amino acids 1027 to 1711) for these strains; inferred from pET21b vector and Ni-NTA purification; made in house; host or cells: Escherichia coli BL21 (DE3), pET21b
Nature of the test: FRET peptide assay to monitor HCV NS3/4A proteolytic activity, J4L6S strain. The text has this:
HCV NS3 protease complexes, derived from the BMS strain, H77 strain or J4L6S strain, were generated, as described below. These purified recombinant proteins were generated for use in a homogeneous assay (see below) to provide an indication of how effective compounds of the present disclosure would be in inhibiting HCV NS3 proteolytic activity.
The H77 and J4L6S strains were used for production of recombinant NS3/4A protease complexes. DNA encoding the recombinant HCV NS3/4A protease complex (amino acids 1027 to 1711) for these strains was manipulated as described by P. Gallinari et al. (see Gallinari P, Paolini C, Brennan D, Nardi C, Steinkuhler C, De Francesco R. Biochemistry. 38(17):5620-32, (1999)). Briefly, a three-lysine solubilizing tail was added at the 3′-end of the NS4A coding region. The cysteine in the P1 position of the NS4A-NS4B cleavage site (amino acid 1711) was changed to a glycine to avoid the proteolytic cleavage of the lysine tag. Furthermore, a cysteine to serine mutation was introduced by PCR at amino acid position 1454 to prevent the autolytic cleavage in the NS3 helicase domain. […]

T3 sequence (O92972 1027-1711 C1454S/C1711G, one chain of several): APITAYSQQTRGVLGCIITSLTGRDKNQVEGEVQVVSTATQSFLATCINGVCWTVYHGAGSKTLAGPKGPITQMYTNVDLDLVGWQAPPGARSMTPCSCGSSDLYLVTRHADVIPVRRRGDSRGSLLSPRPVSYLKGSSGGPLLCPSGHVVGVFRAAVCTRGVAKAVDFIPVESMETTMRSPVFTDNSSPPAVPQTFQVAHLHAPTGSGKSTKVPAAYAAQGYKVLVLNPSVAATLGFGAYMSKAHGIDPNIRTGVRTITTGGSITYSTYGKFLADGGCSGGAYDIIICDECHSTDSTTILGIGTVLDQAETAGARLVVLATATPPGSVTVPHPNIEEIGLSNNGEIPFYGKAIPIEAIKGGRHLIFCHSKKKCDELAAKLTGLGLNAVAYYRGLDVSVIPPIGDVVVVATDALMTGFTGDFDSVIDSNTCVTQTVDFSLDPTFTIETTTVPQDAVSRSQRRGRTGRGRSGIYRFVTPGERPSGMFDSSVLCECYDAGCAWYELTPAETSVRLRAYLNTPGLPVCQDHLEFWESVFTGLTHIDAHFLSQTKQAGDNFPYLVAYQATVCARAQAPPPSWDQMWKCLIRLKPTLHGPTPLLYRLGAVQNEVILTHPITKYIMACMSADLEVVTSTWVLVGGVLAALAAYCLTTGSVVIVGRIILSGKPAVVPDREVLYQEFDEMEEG
T2 sequence (P17538 19-263): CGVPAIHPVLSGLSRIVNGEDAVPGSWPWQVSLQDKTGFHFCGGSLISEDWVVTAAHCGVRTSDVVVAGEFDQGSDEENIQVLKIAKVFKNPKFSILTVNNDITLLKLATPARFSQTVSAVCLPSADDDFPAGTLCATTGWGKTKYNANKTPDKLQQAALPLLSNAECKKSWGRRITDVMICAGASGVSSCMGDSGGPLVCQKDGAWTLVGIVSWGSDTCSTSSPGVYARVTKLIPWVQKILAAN

As to `C=C[C@@H]1C[C@]1(NC(=O)[C@@H]1C[C@@H](OC(=O)N2Cc3cccc(F)c3C2)CN1C(=O)[C@@H](OC(=O)NC(C)(C)C)C(C)(C)C)C(=O)NS(=O)(=O)C1CC1` [Example 56Compound 56], the half-inhibitory concentration (IC50) in test [1] was > 100 µM; in test [2], > 100 µM; in test [3] it was 0.0098 µM.

Source of the values: patent US7323447B2, “Hepatitis C virus inhibitors” (Bristol-Myers Squibb Company, priority 2005, dated 2008).
